The values below come from ChEMBL document CHEMBL3297700, “Dose-dependent inhibition of BACE-1 by the monoterpenoid 2,3,4,4-tetramethyl-5-methylenecyclopent-2-enone in cellular and mouse models of Alzheimer's disease” (J Nat Prod, 2014).

Series [1] in a line: Cytotoxicity against CHO cells expressing wild-type APP assessed as cell viability at 600 uM by neutral red uptake assay relative to control. It is filed as cell-based, Cricetulus griseus. Particulars: chinese hamster, read-out: Activity.
Series [2] deals with Beta-secretase 1 (Cricetulus griseus, UniProt G3IAK4). Briefly: Inhibition of BACE-1 in CHO cells expressing wild-type APP assessed as reduction in amyloid beta-40 production after 6 hrs by sandwich ELISA. Background: An ELISA detects its analyte on a solid surface through an enzyme-linked reagent.
Beta-secretase 1 (Cricetulus griseus, UniProt G3IAK4), sequence (G3IAK4 whole entry): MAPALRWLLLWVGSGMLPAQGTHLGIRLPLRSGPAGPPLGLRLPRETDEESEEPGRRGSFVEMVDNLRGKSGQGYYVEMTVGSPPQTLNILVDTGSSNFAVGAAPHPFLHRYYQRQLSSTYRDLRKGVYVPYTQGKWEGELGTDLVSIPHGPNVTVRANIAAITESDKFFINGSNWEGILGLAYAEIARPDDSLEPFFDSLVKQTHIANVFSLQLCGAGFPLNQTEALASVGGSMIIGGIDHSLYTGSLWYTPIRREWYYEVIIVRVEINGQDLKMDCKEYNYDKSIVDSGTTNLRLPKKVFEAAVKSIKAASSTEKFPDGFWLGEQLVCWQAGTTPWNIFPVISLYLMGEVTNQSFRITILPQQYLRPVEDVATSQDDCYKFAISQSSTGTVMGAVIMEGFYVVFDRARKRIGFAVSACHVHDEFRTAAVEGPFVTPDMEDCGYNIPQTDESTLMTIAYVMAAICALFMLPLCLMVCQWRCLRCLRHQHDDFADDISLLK
Another series deals with Cathepsin D (Homo sapiens, UniProt P07339). The series is described as follows: Inhibition of cathepsin D in human liver using Lys-Lys-Pro-Ala-Glu-Phe-Phe-Ala-Leu-Lys as substrate by spectrofluorometric analysis. Particulars: read-out: Ki(app).
Cathepsin D, sequence (P07339 65-162 limits assumed): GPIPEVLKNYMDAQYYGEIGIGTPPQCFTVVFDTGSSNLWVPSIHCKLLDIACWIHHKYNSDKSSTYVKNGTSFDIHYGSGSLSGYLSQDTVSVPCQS
Cathepsin D, sequence (P07339 169-412 limits assumed): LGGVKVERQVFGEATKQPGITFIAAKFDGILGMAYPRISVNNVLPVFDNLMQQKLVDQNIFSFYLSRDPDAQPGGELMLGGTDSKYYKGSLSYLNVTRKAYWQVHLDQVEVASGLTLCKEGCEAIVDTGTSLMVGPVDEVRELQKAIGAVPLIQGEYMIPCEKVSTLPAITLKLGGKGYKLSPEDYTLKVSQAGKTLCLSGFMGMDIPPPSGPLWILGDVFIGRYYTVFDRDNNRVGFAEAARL
Series [3] has as its system Mus musculus. Briefly: In vivo inhibition of BACE-1 in triple transgenic mouse model of Alzheimer's disease assessed as reduction in brain insoluble amyloid beta-40 level administered intranasally qd for 4 days by ELISA. It is filed as functional, organism-based.
Series [4] concerns the target T1, Beta-secretase 1 (Homo sapiens, UniProt P56817). Briefly: Inhibition of recombinant BACE-1 (unknown origin) expressed in Escherichia coli measured for 5 to 30 mins by spectrofluorometric analysis. Particulars: read-out: Ki(app).
Series [5] deals with T1, Beta-secretase 1. Briefly: Inhibition of BACE-1 in human SH-SY5Y cells expressing wild-type APP assessed as reduction in amyloid beta-40 production after 16 hrs by sandwich ELISA.
The subject of series [6] is Mus musculus. Briefly: In vivo inhibition of BACE-1 in triple transgenic mouse model of Alzheimer's disease assessed as reduction in brain soluble amyloid beta-40 level administered intranasally qd for 4 days by ELISA. It is filed as functional, organism-based.
In series [7] the test system is Mus musculus. The series is described as follows: Toxicity in triple transgenic mouse model of Alzheimer's disease administered intranasally qd for 4 days. It is filed as organism-based. The conditions noted are these: in vivo, inhaled_or_intranasal, 96 h.
The nature of series [8]: Cytotoxicity against human SH-SY5Y cells expressing wild-type APP assessed as cell viability at 600 uM by trypan blue dye exclusion assay relative to control. It is filed as cell-based. Particulars: read-out: Activity.

Several values for one entry are separate records, joined by “and”; a condition that tells them apart may be missing. Equal entries are not always repeated.

T1 sequence (P56817 whole entry): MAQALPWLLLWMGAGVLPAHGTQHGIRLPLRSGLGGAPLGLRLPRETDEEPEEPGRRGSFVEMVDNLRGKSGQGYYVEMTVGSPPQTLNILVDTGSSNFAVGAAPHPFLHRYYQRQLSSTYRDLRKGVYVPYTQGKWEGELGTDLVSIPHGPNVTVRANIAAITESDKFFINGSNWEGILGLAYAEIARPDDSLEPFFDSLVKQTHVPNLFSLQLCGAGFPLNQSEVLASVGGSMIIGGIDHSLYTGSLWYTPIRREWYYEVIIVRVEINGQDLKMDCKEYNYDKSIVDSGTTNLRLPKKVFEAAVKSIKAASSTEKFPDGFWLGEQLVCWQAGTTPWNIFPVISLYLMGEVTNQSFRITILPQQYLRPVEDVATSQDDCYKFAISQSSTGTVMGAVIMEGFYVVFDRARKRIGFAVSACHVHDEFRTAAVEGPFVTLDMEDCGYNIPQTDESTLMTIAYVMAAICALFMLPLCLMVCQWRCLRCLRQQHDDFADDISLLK

As to `C=C1C(=O)C(C)=C(C)C1(C)C`, the viability at 600 µM in series [1] and in series [8] was > 90% in each case. Besides, the figures for the 50% effective concentration (EC50) on Beta-secretase 1 [2] and at Beta-secretase 1 [5] were 73 µM and 217 µM, respectively. The Ki at Cathepsin D is 31 µM and 30.8 µM; at Beta-secretase 1 [4] it was 416 µM. Also, the inhibition entry with Mus musculus [3] and with Mus musculus [6] was “Dose-dependent effect” throughout. In addition, the Activity entry with Mus musculus [7] is given as “Non-toxic”.
